“And” between values parts separate entries of the source, which are not always exact repeats. Equal values may be shown once. Where a name gives a salt, the structure may show the parent alone.

The conditions of one data set: [M+H-H2O]+; instrument: TW; calibrated with polyalanine and drug standards.
Turning to `O=C(N[C@H](CO)[C@H](O)c1ccc([N+](=O)[O-])cc1)C(Cl)Cl` [CHLORAMPHENICOL], the “collision cross section (N2)” value stood at 163.9 Å². Still for that read-out and setting: then `NS(=O)(=O)c1cc(C2(O)NC(=O)c3ccccc32)ccc1Cl` (stereo not given) [CHLORTHALIDONE], with 166.7 Å².

The same data set, now with this note: [M+H]+; instrument: TW; calibrated with polyalanine and drug standards.
With `O=C(Oc1cccc2cccnc12)c1ccccc1` [BENZOXIQUINE], the “collision cross section (N2)” value is on record as 153.8 Å².

For `CN1CCc2cc3c(cc2[C@H]1[C@@H]1OC(=O)c2c1ccc1c2OCO1)OCO3` [BICUCULLINE (+)], the “collision cross section (N2)” value worked out at 180 Å². Consider `c1ccc(-c2ccc(C(c3ccccc3)n3ccnc3)cc2)cc1` (stereo not given) [BIFONAZOLE], for which the “collision cross section (N2)” value was determined as 184.8 Å². On to `O=C(/C=C/C(=O)Oc1ccccc1C(=O)O)Oc1ccccc1C(=O)O` [BISSALICYL FUMARATE], for which the “collision cross section (N2)” value is on record as 171.1 Å².

As to `O=C1C=CC2=C3c4cc(O)c(O)cc4CC3(O)COC2=C1` (stereo not given) [BRAZILEIN], the “collision cross section (N2)” value is reported as 159.9 Å². The same measure, in the same setting: then `CCCC1O[C@@H]2C[C@H]3[C@@H]4CCC5=CC(=O)C=C[C@]5(C)[C@H]4[C@@H](O)C[C@]3(C)[C@]2(C(=O)CO)O1` (stereo not given in full) [BUDESONIDE], with 204.6 Å²; and `CC1=CC2C(C(C)C)CCC(C)(O)C2CC1` (stereo not given) [CADIN-4-EN-10-OL], with 145.9 Å²; and `CC(=O)OCC1(O)CC23CCC4c5ccoc5CCC4(C)C2CCC1C3` (stereo not given) [CAFESTOL ACETATE], with 169.3 Å².

On to `NC(N)=NOCC[C@H](N)C(=O)O` [CANAVANINE], for which the “collision cross section (N2)” value was determined as 133.3 Å².

For the compound `NC(=O)N1c2ccccc2C=Cc2ccccc21` [CARBAMAZEPINE], the “collision cross section (N2)” value is on record as 149 Å². Same read-out and setting: then `C[C@@](Cc1ccc(O)c(O)c1)(NN)C(=O)O` [CARBIDOPA], with 142.4 Å²; and `C=CC1=C(C(=O)O)N2C(=O)[C@@H](NC(=O)/C(=N\O)c3csc(N)n3)[C@H]2SC1` [CEFDINIR], with 190.5 Å²; and `CO/N=C(\C(=O)N[C@@H]1C(=O)N2C(C(=O)OCOC(=O)C(C)(C)C)=C(/C=C\c3scnc3C)CS[C@H]12)c1csc(N)n1` [CEFDITORIN PIVOXIL], with 238 Å².

Consider `COCC1=C(C(=O)OC(C)OC(=O)OC(C)C)N2C(=O)[C@@H](NC(=O)/C(=N\OC)c3csc(N)n3)[C@H]2SC1` (stereo not given in full) [CEFPODOXIME PROXETIL], for which the “collision cross section (N2)” value is 235.4 Å² and 228.3 Å². Same read-out and setting: as for `OC[C@@H](O)[C@H]1O[C@@H]2O[C@H](C(Cl)(Cl)Cl)O[C@@H]2[C@H]1O` [CHLORALOSE], the figure is 163.2 Å²; as for `NS(=O)(=O)c1cc2c(cc1Cl)NC=NS2(=O)=O` [CHLOROTHIAZIDE], 161 Å². The same measure, in the same setting: as for `Oc1c(Cl)cc(Cl)c2cccnc12` [CHLOROXINE], the figure is 134.3 Å²; as for `CCOP(=S)(OCC)Oc1nc(Cl)c(Cl)cc1Cl` [CHLORPYRIFOS], 201.7 Å². On the same count and under the same terms, then `CC(C)CCC[C@@H](C)[C@H]1CC[C@H]2[C@@H]3C=CC4=CC(=O)CC[C@]4(C)[C@H]3CC[C@]12C` [CHOLESTA-4,6-DIEN-3-ONE], with 208.3 Å²; and `CC(C)=CC1C(C(=O)O)C1(C)C` (stereo not given) [CHRYSANTHEMIC ACID], with 130 Å². For `O=C(O)c1cc(-c2ccccc2)nc2ccccc12` [CINCHOPHEN], the “collision cross section (N2)” value was found to be 154.3 Å². The same measure, in the same setting: as for `CCn1nc(C(=O)O)c(=O)c2cc3c(cc21)OCO3` [CINOXACIN], the figure is 148.5 Å². The same measure, in the same setting: then `COc1cc(OC)c2ccc(=O)oc2c1` [CITROPTEN], with 138.3 Å²; and `Oc1c(I)cc(Cl)c2cccnc12` [CLIOQUINOL], with 138.2 Å²; and `Cc1[nH]c(C)c(Cl)c(=O)c1Cl` [CLOPIDOL], with 131.2 Å². Same read-out and setting: as for `CN1CCN(C2=c3ccccc3=Nc3ccc(Cl)cc3N2)CC1` [CLOZAPINE], the figure is 177.5 Å²; as for `COc1cc2c(c(OC)c1OC)-c1ccc(OC)c(=O)cc1[C@@H](NC(C)=O)CC2` [COLCHICINE], 194.5 Å². Take `CC(=O)OCC(=O)[C@@]1(O)CC[C@H]2[C@@H]3CCC4=CC(=O)CC[C@]4(C)[C@H]3C(=O)C[C@@]21C` [CORTISONE ACETATE]: the “collision cross section (N2)” value is reported as 196.5 Å². Same read-out and setting: then `O=c1ccc2ccccc2o1` [COUMARIN], with 122.2 Å². Same read-out and setting: as for `C/C=C/C(=O)N(CC)c1ccccc1C` [CROTAMITON], the figure is 145.1 Å²; as for `CC(C)(O)CC[C@@H](O)[C@](C)(O)[C@H]1CC[C@@]2(O)C3=CC(=O)[C@@H]4C[C@@H](O)[C@@H](O)C[C@]4(C)[C@H]3CC[C@]12C` [CRUSTECDYSONE], 221.3 Å². The same measure, in the same setting: as for `COc1cc(/C=C/C(=O)CC(=O)/C=C/c2ccc(O)c(OC)c2)ccc1O` [CURCUMIN], the figure is 198.5 Å²; as for `CN1CCN(C(c2ccccc2)c2ccccc2)CC1` [CYCLIZINE], 164.8 Å²; as for `NC1=NCCN1CC(=O)O` [CYCLOCREATINE], 124.3 Å².

On to `CC(=O)O[C@]1(C(C)=O)CC[C@H]2[C@@H]3C=C(Cl)C4=CC(=O)[C@@H]5C[C@@H]5[C@]4(C)[C@H]3CC[C@@]21C` [CYPROTERONE ACETATE], for which the “collision cross section (N2)” value is 199.4 Å².

For `Nc1ccn([C@@H]2O[C@H](CO)[C@@H](O)[C@@H]2O)c(=O)n1` [CYTARABINE], the “collision cross section (N2)” value was determined as 150.5 Å².

As to `O=c1cccc2n1C[C@@H]1CNC[C@H]2C1` [CYTISINE], the “collision cross section (N2)” value is given as 137.9 Å². `COc1cccc2c1C(=O)c1c(O)c3c(c(O)c1C2=O)C[C@@](O)(C(C)=O)C[C@@H]3O[C@H]1C[C@H](N)[C@H](O)[C@H](C)O1` [DAUNORUBICIN]: the “collision cross section (N2)” value is 222.9 Å². Still for that read-out and setting: then `CC(=O)O[C@H]1C[C@@H](OC(C)=O)C(C)(C)C2CC(=O)[C@]3(C)C(CC[C@@]4(C)[C@H](C(=O)O)OC(=O)C5OC543)[C@]21C` (stereo not given in full) [DEACETOXY(7)-7-OXOKHIVORINIC ACID], with 212.6 Å². The same measure, in the same setting: as for `COc1cc2c(cc1OC)-c1c(oc3c4c(ccc3c1=O)OC(C(C)C)C4)CO2` (stereo not given) [DEHYDRODIHYDROROTENONE], the figure is 194.6 Å²; as for `COc1ccc2c(c1)OCc1c-2oc2cc(OC)ccc12` [DEHYDROVARIABILIN], 159 Å²; as for `COc1ccc2c(c1)OCC(Cc1ccc(O)c(OC)c1)C2=O` (stereo not given) [DEOXYSAPPANONE B 7,3'-DIMETHYL ETHER], 171.2 Å².

As to `COc1ccc2c(c1)OCC(Cc1ccc(OC)c(O)c1)C2=O` (stereo not given) [DEOXYSAPPANONE B 7,4'-DIMETHYL ETHER], the “collision cross section (N2)” value stood at 170.6 Å². Still for that read-out and setting: then `COc1ccc(-c2cc(C(F)F)nn2-c2ccc(S(N)(=O)=O)cc2)cc1F` [DERACOXIB], with 189.9 Å²; and `COc1cc(OC)c2c(OC)c(-c3ccc4c(c3)OCO4)c(=O)oc2c1` [DERRUSNIN], with 176.7 Å²; and `CC1(C)O[C@@H]2C[C@H]3[C@@H]4CCC5=CC(=O)C=C[C@]5(C)[C@H]4[C@@H](O)C[C@]3(C)[C@]2(C(=O)CO)O1` [DESONIDE], with 198.5 Å². Same read-out and setting: as for `CC(=O)OCC(=O)[C@H]1CC[C@H]2[C@@H]3CCC4=CC(=O)CC[C@]4(C)[C@H]3CC[C@]12C` [DESOXYCORTICOSTERONE ACETATE], the figure is 193.8 Å²; as for `CC1CC2C3CCC4=CC(=O)C=CC4(C)C3(F)C(O)CC2(C)C1C(=O)CO` (stereo not given) [DESOXYMETASONE], 186.4 Å²; as for `C=CCSSSCC=C` [DIALLYL TRISULFIDE], 126.9 Å². Turning to `COP(=O)(OC)OC=C(Cl)Cl` [DICHLORVOS], the “collision cross section (N2)” value is listed as 138.7 Å².

In the case of `CCCc1cc(OC)c2c(c1)OCO2` [DIHYDROMYRISTICIN], the “collision cross section (N2)” value is given as 128.7 Å².

As to `Cc1cccc2c3c(ccc12)C1=C(C(=O)C3=O)[C@@H](C)CO1` [DIHYDROTANSHINONE I], the “collision cross section (N2)” value is 159.4 Å². As to `CN(C(=O)C(Cl)Cl)c1ccc(OC(=O)c2ccco2)cc1` [DILOXANIDE FUROATE], the “collision cross section (N2)” value is 171.7 Å². Same read-out and setting: as for `COC(=O)NC(=S)Nc1ccccc1NC(=S)NC(=O)OC` [DIMETHYL 4,4-o-PHENYLENE-BIS (3-THIOPHANATE)], the figure is 173.3 Å²; as for `COc1ccc(C(=O)c2ccccc2O)c(O)c1` [DIOXYBENZONE], 150 Å²; as for `OCCN(CCO)c1nc(N2CCCCC2)c2nc(N(CCO)CCO)nc(N3CCCCC3)c2n1` [DIPYRIDAMOLE], 223.9 Å². On the same count and under the same terms, then `CCN(CC)C(=S)SSC(=S)N(CC)CC` [DISULFIRAM], with 165.5 Å².

Staying with this data set, now noted: [M+Na]+; instrument: TW; calibrated with polyalanine and drug standards.
With `CCCCCCCCCCCCCCC(C(=O)O)C(O)(CC(=O)OC)C(=O)O` (stereo not given) [CAPERATIC ACID], the “collision cross section (N2)” value is 211 Å². On the same count and under the same terms, as for `C[C@H](CCC(=O)O)[C@H]1CC[C@H]2[C@@H]3[C@H](O)C[C@@H]4C[C@H](O)CC[C@]4(C)[C@H]3C[C@H](O)[C@]12C` [CHOLIC ACID], the figure is 195.6 Å²; as for `CC1CC(OC(=O)C(O)c2ccccc2)CC(C)(C)C1` (stereo not given) [CYCLANDELATE], 186.2 Å²; as for `C=C[C@@]1(C)CC(=O)[C@@]2(O)[C@](C)(O1)[C@@H](O)[C@@H](O)C1C(C)(C)CC[C@H](O)[C@@]12C` (stereo not given in full) [DESACETYLCOLFORSIN], 185.6 Å².

Regarding `CC(=O)Oc1cccc(C(=O)O)c1OC(C)=O` [DIPYROCETYL], the “collision cross section (N2)” value is given as 150 Å².

The same data set, now with this note: [M]+; instrument: TW; calibrated with polyalanine and drug standards.
Take `C[N+](C)(CCOc1ccccc1)Cc1ccccc1` [BEPHENIUM]: the “collision cross section (N2)” value came to 162.3 Å².

These data come from the C3SDB collision cross section collection.
